Reference: patent US7964647B2 (Mutual Pharmaceutical Company, Inc., priority 2007, dated 2011)
Read-outs that look alike come from different tables or passages of the source.

Tests used:
[1] = metabolite after single and multiple 0.6 mg colchicine doses
Method: Subjects received a light breakfast served 60 minutes following dose administration in the morning and the evening dose was administered 90 minutes after an evening meal on Days 15 through 24 only. […] Study periods were separated by a 14-day washout. Following the single dose and the last dose of the multiple dose regimen (beginning on the mornings of Day 1 and Day 25, respectively), blood samples were collected (6 mL each) from each subject within 1 hour prior to dosing and after dose administration at study hours 0.5, 1, 1.5, 2, 3, 4, 6, 8, 10, 12, and 24 (while confined) and 36, 48, 72, and 96 (on an outpatient basis).

[2] = metabolite after low-dose colchicine 1.8 mg, all subjects
Method: This study was a single-center, single-period, open-label pharmacokinetic study conducted in healthy subjects under fasting conditions.
Subjects received 2×0.6 mg tablets initially followed by 1×0.6 mg tablet 1 hour later.

[3] = Pharmacokinetic study of standard-dose acute gout regimen 4.8 mg over 6 hours (Example 6)
Method: This study was a single center, randomized, double-blind, double-dummy pharmacokinetic and exploratory ECG safety study.
Those randomized to moxifloxacin received 1×400 mg tablet.

[4] = metabolite after standard-dose colchicine 4.8 mg over 6 hours, N = 8
[5] = standard-dose colchicine 4.8 mg

| SMILES | 2-DMC plasma concentrations (all below LOQ) [1] [ng/mL] | 2-DMC plasma concentrations [2] | 2-DMC plasma concentrations ([3]; metabolite after standard-dose colchicine 4.8 mg, all subjects) | 3-DMC AUC∞, mean [3, 4] [ng·h/mL] | 3-DMC Ke, mean [3, 4] [h⁻¹] | 3-DMC t1/2, mean [3, 4] [h] | 3-DMC AUC0-t, mean ([3]; metabolite after standard-dose colchicine 4.8 mg over 6 hours, N = 13) [ng·h/mL] | 3-DMC Tmax, mean ([3]; metabolite after standard-dose colchicine 4.8 mg over 6 hours, N = 14) [h] | 3-DMC Cmax, mean ([3]; metabolite after standard-dose colchicine 4.8 mg over 6 hours, N = 15) [ng/mL] | Mean 3-DMC AUC0-t as % of mean colchicine AUC0-t [3, 5] [%] | Mean 3-DMC AUC∞ as % of mean colchicine AUC∞ [3, 5] [%] | Mean 3-DMC Cmax as % of mean colchicine Cmax [3, 5] |
| --- | --- | --- | --- | --- | --- | --- | --- | --- | --- | --- | --- | --- |
| COc1cc2c(c(OC)c1O)-c1ccc(OC)c(=O)cc1[C@@H](NC(C)=O)CC2 [2-DMC, N-[(7S,12aS)-2-hydroxy-1,3,10-trimethoxy-9-oxo-5,6,7,9-tetrahydrobenzo[a]heptalen-7-yl]-acetamide] | < 0.2 | below the LOQ | below LOQ |  |  |  |  |  |  |  |  |  |
| COc1c(O)cc2c(c1OC)-c1ccc(OC)c(=O)cc1[C@@H](NC(C)=O)CC2 [3-DMC, N-[(7S,12aS)-3-hydroxy-1,2,10-trimethoxy-9-oxo-5,6,7,9-tetrahydrobenzo[a]heptalen-7-yl]-acetamide] |  |  |  | 4.84 | 0.1418 | 6.93 | 2.09 | 5.06 | 0.32 | ~2 | ~4.1 | approximately 4.7% |
